# What was measured:
# [1] = tested on: nitrogen monoxide (NO) production due to IL-1β; test: NO production inhibitory action in IL-1β-stimulated rat liver cells (Griess method); assay type: cell-based; details: IL-1β 1 nM, 8 hours
# Experimental: Liver cells were isolated from male Wistar rats (200 to 250 g, Charles River) by a collagenase perfusion method (collagenase: Wako Pure Chemicals). The isolated liver cells were suspended in a medium at 6×10^5 cells/mL, seeded in 35 mm plastic dishes (Falcon Plastic) (2 mL/dish), and cultured in an incubator with 5% CO2 at 37° C. Williams' Medium E (WE) containing 10% newborn calf serum, HEPES (5 mM), penicillin (100 U/mL), streptomycin (0.1 mg/mL), dexamethasone (10 nM), and insulin (10 nM) was used as the medium. After 5 hours, the medium was replaced with fresh WE free of any serum and hormone, and the cells were cultured overnight until before use of the cells for an experiment.
# On day 1 after the start of the culture, cells were subjected to replacement with fresh WE free of any serum and hormone, and recombinant rat IL-1β (purity of 97% or more) (PeproTech, Rocky Hill, N.J., USA), and Pa5 extracted with methanol in Example 1 or negletein in the comparative example were added to the medium. In each medium, the concentration of IL-1β was 1 nM, the concentrations of Pa5 were 5, 10, and 20 μM, and the concentrations of negletein were 10, 20, and 40 μM (FIG. 1). The amount of NO in each medium was measured 8 hours after the addition of IL-1β, and Pa5 or negletein by a Griess method (Green L C et al, Anal Biochem 1982; 126: 131-138). More specifically, the amount of nitrite (stable metabolite of NO) in each medium was measured.
# Liver cells originated from rats were cultured in like manner with Example 4. On day 1 after the start of the culture, the cells were subjected to replacement with fresh WE free of any serum and hormone, and recombinant rat IL-1β (similar to that in Example 4) and Pa9 extracted with methanol in Example 3 were added to the medium. In each medium, the concentration of IL-1β was 1 nM, and the concentrations of Pa9 were 10 μM, 50 μM, and 100 μM (FIG. 5). The amount of NO in each medium was measured 8 hours after the addition of IL-1β and Pa9 in like manner with Example 4.
# CINC-2α/β = test: cytokine/chemokine array (in vitro), CINC-2α/β; assay type: cell-based, rat; details: (+) IL-1β 1 nM, Pa5′ 100 μM
# Experimental: (§1) In like manner with Example 4, liver cells were isolated from male Wistar rats by a collagenase perfusion method. The isolated liver cells were suspended in a medium (similar to that in Example 4) at 1.2×10^6 cells/mL, seeded in 35 mm plastic dishes (similar to those in Example 4) (1 mL/dish), and cultured in an incubator with 5% CO2 at 37° C. After 5 hours, the medium was replaced with fresh WE free of any serum and hormone, and the cells were cultured overnight until before use of the cells for an experiment.
# (§2) On day 1 after the start of the culture, cells were subjected to replacement with fresh WE free of any serum and hormone, and IL-1β (similar to that in Example 4), and Pa5 extracted with methanol in Example 1 or Pa5′ extracted with methanol in Example 2 were added to the medium. The concentrations of IL-1β, Pa5, and Pa5′ in each medium were 1 nM, 20 μM, and 100 μM, respectively (Table 1). Then, the cells were cultured at 37° C., and the medium was collected 3 hours after the start of the culture. The collected medium was centrifuged for 1 minute at 5000 rpm to remove cellular debris, and the supernatant was used in an assay. The supernatant was preserved at −80° C. until performing the assay.
# (§3) The productions of the various inflammatory cytokines/chemokines were measured according to an accompanying protocol using Rat Cytokine Antibody Array (R&D Systems) (http://www.rndsystems.com/product_detail_objectname_ratcytokinearray.aspx) capable of detecting 29 kinds of cytokines/chemokines in Proteome Profiler® Antibody Array. In the measurement, 1 mL of the supernatant of the medium obtained as described above was used.
# (§4) In the above-described method, the 29 kinds of the cytokines/chemokines can be detected at once, and chemiluminescence on the filter of Proteome Profiler Antibody Array increases in proportion to the amount of each cytokine/chemokine. Thus, the chemiluminescence on the filter of Proteome Profiler Antibody Array was detected with LAS3000mini (GE Healthcare), subjected to densitometry analysis, and converted into a numeric value. The densitometry analysis was carried out with reference to http://www.hm6.aitai.ne.jp/˜maxcat/imageJ/technique.html#gels (the heading of “Analyzing Electrophoretic Gels”) using ImageJ software.
# CINC-3 = test: cytokine/chemokine array (in vitro), CINC-3; assay type: cell-based, rat; details: (+) IL-1β 1 nM, Pa5′ 100 μM
# Experimental: as §1, §2, §3, §4
# Fractalkine (CX3CL1) = test: cytokine/chemokine array (in vitro), Fractalkine; assay type: cell-based, rat; details: Pa5′ 100 μM
# Experimental: as §1, §2, §3, §4
# sICAM-1 (CD54) = test: cytokine/chemokine array (in vitro), sICAM-1; assay type: cell-based, rat; details: (+) IL-1β 1 nM, Pa5′ 100 μM
# Experimental: as §1, §2, §3, §4
# MIG (CXCL9) = test: cytokine/chemokine array (in vitro), MIG; assay type: cell-based, rat; details: (+) IL-1β 1 nM, Pa5′ 100 μM
# Experimental: as §1, §2, §3, §4
# [2] = tested on: VEGF (VEGF-A/Vasculotropin); test: cytokine/chemokine array (in vitro), VEGF; assay type: cell-based, rat; details: (+) IL-1β 1 nM, Pa5′ 100 μM
# Experimental: as §1, §2, §3, §4
# IL-17 = test: cytokine/chemokine array (in vitro), IL-17; assay type: cell-based, rat; details: Pa5′ 100 μM
# Experimental: as §1, §2, §3, §4
# Thymus Chemokine (CXCL7) = test: cytokine/chemokine array (in vitro), Thymus Chemokine; assay type: cell-based, rat; details: Pa5′ 100 μM
# Experimental: as §1, §2, §3, §4
# [3] = (+) IL-1β 1 nM, 3 hours, (+) alone = 100.0
# [4] = (+) IL-1β 1 nM, medium at 3 hours
# [5] = rat liver cells, IL-1β 1 nM, 3 hours
smiles,measurement,setting,value
"COc1cc2oc(-c3ccccc3)cc(=O)c2c(O)c1O [negletein, reference compound]",IC50,"[1]; nitrite by Griess method, read-out: IC50 value (drug concentration at NO production of 50%)",16.3 µM
same,production of NO due to IL-1β,"[1]; negletein 10, 20, 40 μM",dose-dependently inhibited
"COc1cc(O)c2c(c1O)OC(c1ccccc1)CC2=O (stereo not shown) [Pa5′, 5,8-dihydroxy-7-methoxyflavanone]",CINC-2α/β (%),"CINC-2α/β; 3 hours, (+) alone = 100.0",96.8%
same,"CINC-2α/β chemiluminescence densitometry, Average",CINC-2α/β; medium at 3 hours,5839.6
same,"CINC-2α/β chemiluminescence densitometry, first value",CINC-2α/β; medium at 3 hours,5944.2
same,"CINC-2α/β chemiluminescence densitometry, second value",CINC-2α/β; medium at 3 hours,5735.0
same,CINC-3 (%),"CINC-3; 3 hours, (+) alone = 100.0",60.8%
same,"CINC-3 chemiluminescence densitometry, Average",CINC-3; medium at 3 hours,1846.9
same,"CINC-3 chemiluminescence densitometry, first value",CINC-3; medium at 3 hours,1849.2
same,"CINC-3 chemiluminescence densitometry, second value",CINC-3; medium at 3 hours,1844.7
same,Fractakine (CX3CL1) (%),Fractalkine (CX3CL1); [3],42.7%
same,"Fractakine (CX3CL1) chemiluminescence densitometry, Average",Fractalkine (CX3CL1); [4],310.1
same,"Fractakine (CX3CL1) chemiluminescence densitometry, first value",Fractalkine (CX3CL1); [4],287.0
same,"Fractakine (CX3CL1) chemiluminescence densitometry, second value",Fractalkine (CX3CL1); [4],333.3
same,induction of fractalkine (CX3CL1),Fractalkine (CX3CL1); [5],strongly inhibit
same,sICAM-1 (CD54) (%),"sICAM-1 (CD54); 3 hours, (+) alone = 100.0",68.4%
same,"sICAM-1 (CD54) chemiluminescence densitometry, Average",sICAM-1 (CD54); medium at 3 hours,257.3
same,"sICAM-1 (CD54) chemiluminescence densitometry, first value",sICAM-1 (CD54); medium at 3 hours,250.3
same,"sICAM-1 (CD54) chemiluminescence densitometry, second value",sICAM-1 (CD54); medium at 3 hours,264.3
same,MIG (CXCL9) (%),"MIG (CXCL9); 3 hours, (+) alone = 100.0",86.8%
same,"MIG (CXCL9) chemiluminescence densitometry, Average",MIG (CXCL9); medium at 3 hours,666.4
same,"MIG (CXCL9) chemiluminescence densitometry, first value",MIG (CXCL9); medium at 3 hours,672.8
same,"MIG (CXCL9) chemiluminescence densitometry, second value",MIG (CXCL9); medium at 3 hours,660.1
same,VEGF (VEGF-A/Vasculotropin) (%),"[2]; 3 hours, (+) alone = 100.0",109.7%
same,"VEGF (VEGF-A/Vasculotropin) chemiluminescence densitometry, Average",[2]; medium at 3 hours,896.7
same,"VEGF (VEGF-A/Vasculotropin) chemiluminescence densitometry, first value",[2]; medium at 3 hours,875.1
same,"VEGF (VEGF-A/Vasculotropin) chemiluminescence densitometry, second value",[2]; medium at 3 hours,918.4
same,IL-17 (%),IL-17; [3],29.6%
same,"IL-17 chemiluminescence densitometry, Average",IL-17; [4],36.7
same,"IL-17 chemiluminescence densitometry, first value",IL-17; [4],6.1
same,"IL-17 chemiluminescence densitometry, second value",IL-17; [4],67.2
same,induction of IL-17,IL-17; [5],strongly inhibit
same,Thymus Chemokine (CXCL7) (%),Thymus Chemokine (CXCL7); [3],23.1%
same,"Thymus Chemokine (CXCL7) chemiluminescence densitometry, Average",Thymus Chemokine (CXCL7); [4],73.0
same,"Thymus Chemokine (CXCL7) chemiluminescence densitometry, first value",Thymus Chemokine (CXCL7); [4],62.8
same,"Thymus Chemokine (CXCL7) chemiluminescence densitometry, second value",Thymus Chemokine (CXCL7); [4],83.2
same,induction of thymus chemokine (CXCL7),Thymus Chemokine (CXCL7); [5],strongly inhibit

# From patent US9573920B2, “Compound, medicine, anti-inflammatory, cosmetic, food and drink, and method for producing compound” (Amino Up Chemical Co., Ltd., priority 2013, dated 2017)
